Test results as given in patent US5939419A, “2-benzyl-polycyclic guanine derivatives and process for preparing them” (Schering-Plough Corporation, priority 1995, dated 1999).

Test system: spontaneously hypertensive rats (SHR)
Assay: Antihypertensive activity in conscious spontaneously hypertensive rats (SHR), oral
Type: in vivo, rat
Details: not given
From the text: The present compounds are useful in inhibiting the phosphodiesterase enzymes. These phosphodiesterase enzymes are known to hydrolyze cGMP in smooth muscle. High levels of cGMP are associated with the relaxation of vascular smooth muscle, with a consequent subsequent reduction in blood pressure. Thus, it is believed that by inhibiting these phosphodiesterase enzymes, cGMP levels in muscle will be either maintained or increased, with a subsequent reduction in blood pressure. In vivo antihypertensive activity is determined orally in spontaneously hypertensive rats (SHR).
Antihypertensive activity in rats
The ability of the compounds of the present invention to lower blood pressure can be assessed in vivo in conscious spontaneously hypertensive rats (SHR). SHR males are purchased from Taconic Farms, Germantown, N.Y. and are approximately 16-18 weeks old when anesthetized with ether. The caudal (ventral tail) artery is cannulated with polyethylene tubing (PE50) and blood pressure and heart rate are recorded as described by Baum, T. et. al, J. Cardiovasc. Pharmacol. Vol 5, pp. 655-667, (1983). Rats are placed into plastic cylindrical cages where they rapidly recover consciousness. Blood pressure and heart rate are allowed to stabilize for approximately 90 minutes prior to compound administration. […] Activity is expressed as the fall in mean blood pressure (MBP) in millimeters of mercury (mm Hg). […]

Q: Which “SHR: fall in MBP at 25 mpk” value does the source give for CN1C(=O)c2[nH]c(Cc3ccccc3)nc2N2C1=N[C@@H]1CCC[C@@H]12 (relative stereo) [Compound A, reference compound] here?
A: 6 mmHg

Q: Which “SHR: fall in MBP at 25 mpk” value does the source give for CN1C(=O)c2[nH]cnc2N2C1=N[C@@H]1CCC[C@@H]12 (relative stereo) [Compound B, cis-5,6a,7,8,9,9a-hexahydro-5-methylcyclopenta-[4,5]imidazo[2,1-b]-purin-4(3H)-one, reference compound] here?
A: 32 mmHg

Target: T1, calcium-calmodulin dependent phosphodiesterase (CaM-PDE) (Bos taurus, UniProt P14100)
T1 construct: from tissue; host or cells: bovine aorta
Assay: Phosphodiesterase inhibition in vitro, calcium-calmodulin dependent phosphodiesterase (CaM-PDE), 3H-cGMP substrate
Type: biochemical
Details: CaM-PDE from bovine aorta; 1 μM 3H-cGMP; pH 7.5; 25 minutes at room temperature

Q: With CN1C(=O)c2[nH]c(Cc3ccc(C(F)(F)F)cc3)nc2N2C1=N[C@@H]1CCC[C@@H]12 [Example 1C] as the compound, how does the IC50 read?
A: 600 nM

Q: Which IC50 does the source give for CN1C(=O)c2[nH]c(Cc3ccc(OC(F)(F)F)cc3)nc2N2C1=N[C@@H]1CCC[C@@H]12 [Example 3B] here?
A: 600 nM

Q: For CN1C(=O)c2[nH]c(Cc3ccc(F)cc3)nc2N2C1=N[C@@H]1CCC[C@@H]12 [Example 1A], which IC50 is on record?
A: < 100 nM

Q: For COc1cccc(Cc2nc3c([nH]2)C(=O)N(C)C2=N[C@@H]4CCC[C@@H]4N23)c1 [Example 3E], which IC50 is on record?
A: 900 nM

Q: How did the IC50 turn out when CN1C(=O)c2[nH]c(Cc3ccc(N4CCOCC4)cc3)nc2N2C1=N[C@@H]1CCC[C@@H]12 [Example 3C] was run?
A: 200 nM

Q: Cc1ccc(Cc2nc3c([nH]2)C(=O)N(C)C2=N[C@@H]4CCC[C@@H]4N23)cc1 [Example 3A] was tested. Which IC50 did it give?
A: 100 nM

Q: How did the IC50 turn out when CN1C(=O)c2[nH]c(Cc3ccc(Cl)cc3)nc2N2C1=N[C@@H]1CCC[C@@H]12 [Example 7] was run?
A: 650 nM

Q: Which IC50 does the source give for CN1C(=O)c2[nH]c(Cc3ccc(-c4ccccc4)cc3)nc2N2C1=N[C@@H]1CCC[C@@H]12 [Example 3H] here?
A: < 100 nM

Q: How did the IC50 turn out when CN1C(=O)c2[nH]c(Cc3ccc4ccccc4c3)nc2N2C1=N[C@@H]1CCC[C@@H]12 [Example 6] was run?
A: 480 nM

Q: CN1C(=O)c2[nH]c(Cc3ccccc3)nc2N2C1=N[C@@H]1CCC[C@@H]12 [Example 1] was tested. Which IC50 did it give?
A: 100 nM

Q: For COc1ccc(Cc2nc3c([nH]2)C(=O)N(C)C2=N[C@@H]4CCC[C@@H]4N23)cc1 [Example 1B], which IC50 is on record?
A: 200 nM

Q: For COc1cc(Cc2nc3c([nH]2)C(=O)N(C)C2=N[C@@H]4CCC[C@@H]4N23)cc(OC)c1OC [Example 2A], which IC50 is on record?
A: 700 nM

Q: CN1C(=O)c2[nH]c(Cc3cccc(C(F)(F)F)c3)nc2N2C1=N[C@@H]1CCC[C@@H]12 [Example 3F] was tested. Which IC50 did it give?
A: 800 nM

Q: CN1C(=O)c2[nH]c(Cc3ccc4c(c3)OCO4)nc2N2C1=N[C@@H]1CCC[C@@H]12 [Example 3G] was tested. Which IC50 did it give?
A: 300 nM

Q: With CN1C(=O)c2[nH]c(Cc3ccccc3)nc2N2C1=N[C@@H]1CCC[C@@H]12 (relative stereo) [Compound A, reference compound] as the compound, how does the IC50 read?
A: 200 nM

Q: For CC(C)[C@@H]1CN2C(=N1)N(C)C(=O)c1[nH]c(Cc3ccccc3)nc12 [Example 10], which IC50 is on record?
A: 100 nM

Q: Which IC50 does the source give for CN1C(=O)c2[nH]c(Cc3ccccc3)nc2N2CC3(CCCC3)N=C12 [Example 8] here?
A: 100 nM

Q: CN1C(=O)c2[nH]c(Cc3ccccc3)nc2N2CC(C)(C)N=C12 [Example 9] was tested. Which IC50 did it give?
A: 300 nM

Q: CN1C(=O)c2[nH]c(Cc3ccc(N(C)C)cc3)nc2N2C1=N[C@@H]1CCC[C@@H]12 [Example 2] was tested. Which IC50 did it give?
A: < 100 nM

Q: How did the IC50 turn out when CN1C(=O)c2[nH]c(Cc3ccc4c(c3)OCO4)nc2N2C1=NC13CCCC1CCC23 (centres unmarked) [Example 11] was run?
A: 200 nM

Q: Which IC50 does the source give for COc1ccc(Cc2nc3c([nH]2)C(=O)N(C)C2=N[C@@H]4CCC[C@@H]4N23)cc1OC [Example 2B] here?
A: 400 nM

Q: CN1C(=O)c2[nH]c(Cc3ccc(O)cc3)nc2N2C1=N[C@@H]1CCC[C@@H]12 [Example 3] was tested. Which IC50 did it give?
A: < 100 nM

Q: Which IC50 does the source give for CN1C(=O)c2[nH]cnc2N2C1=N[C@@H]1CCC[C@@H]12 (relative stereo) [Compound B, cis-5,6a,7,8,9,9a-hexahydro-5-methylcyclopenta-[4,5]imidazo[2,1-b]-purin-4(3H)-one, reference compound] here?
A: 33000 nM

Q: Which IC50 does the source give for CN1C(=O)c2[nH]c(Cc3ccc(C(F)(F)F)cc3)nc2N2C1=N[C@@H]1COC[C@@H]12 [Example 12] here?
A: 3000 nM
